Consider seven compounds from patent publication US20110144039A1, “ANTIOXIDATIVE AND HEPATOPROTECTIVE COMPOSITIONS CONTAINING DIARYHEPTANOIDS FROM ALNUS JAPONICA” (RNL BIO CO., LTD., priority 2009, published 2011).

The test system of test [1] is primarily cultured hepatocytes of rats. As to the kind of experiment: Hepatoprotective activity: inhibition of tert-butyl hydroperoxide-induced necrosis (LDH release) in primary hepatocytes. The test is classed as cell-based, white rats. The conditions noted are these: 1.2 mM tBH for 50 minutes. The procedure:
In order to measure the hepatoprotective activities of the A. japonica sample fractions, the primarily cultured hepatocytes of white rats were isolated, and then the inhibitory abilities of the fractions against necrosis induced by treating the isolated hepatocytes with 1.2 mM of tert-butyl hydroperoxide for 50 minutes were examined (Park E J et al., Planta Med, 71: 508˜513, 2005).
Hepatocytes were isolated from white rats according to the method of Seglen et al. Briefly, white rats were anesthetized and the abdomen was incised. Then, a catheter was inserted into the portal vein and perfused with Ca^2+, Mg^2+-free Hank's balanced salt solution bubbled with a mixed gas of 5% CO2 and 95% O2 at 37° C. so as to remove blood from the liver. Then, the catheter was perfused with 0.05% type IV collagenase and 1 mM CaCl2 solution. The liver tissue was removed from the body, and a hepatocyte suspension was prepared from the liver tissue and centrifuged at 50×g for 2 minutes. The precipitated hepatocytes were collected and washed twice with Ca^2+, Mg^2+-free Hank's balanced salt solution. The washed hepatocytes were added at a concentration of 1×10^6 cells/ml to Williams' Medium E (WME, GibcoBRL, USA) containing 10% (v/v) fetal bovine serum (FBS, GibcoBRL), 10^−8 M insulin, 50 U/ml of penicillin and 50 μg/ml of streptomycin (Sigma) in an incubator coated with type I collagen, and were then cultured under 5% CO2 at 37° C. After 2 hours of the culture, the cells were washed with Hank's balanced salt solution to remove non-adhered cells, and the medium was replaced with fresh medium. Then, the cells were cultured under 5% CO2 at 37° C. for 16 hours and then used in the experiment.
Herein, tBH is metabolized into free radical intermediates, which initiate lipid peroxidation to affect the cell integrity, and release LDH into the medium, thus forming covalent bonds with cellular molecules causing damage to the cells.
Background: LDH in the medium is a marker of cell lysis.

The nature of test [2]: TOSC (total oxyradical scavenging capacity) assay, peroxyl radicals generated from ABAP. The test is classed as biochemical. The conditions noted are these: both oxyradicals; for scavenging capacity for peroxyl radicals and peroxynitrite: rank in words. As for the experimental part: In order to measure the antioxidative activities of the A. japonica sample fractions, the radical scavenging capacities of the fractions were measured in the following manner using the total oxyradical scavenging capacity (TOSC) assay. The TOSC assay was performed by a modification of the method proposed by Winston et al. (Free Radic. Biol. Med., 24: 480˜493, 1998) (J. Agric. Food Chem. 56, 10510-10514, 2008).
Peroxyl radicals were generated by the thermal homolysis of 2,2′-azobisamidinopropane (ABAP) at 35° C., and peroxynitrite was generated by the spontaneous decomposition of SIN-1.
Then, a total volume of 1 ml of the reaction solution was placed in a 10-ml vial sealed with a rubber septum. For detection of the produced ethylene gas, a gas chromatograph (GC), equipped with a DB-05 capillary column and a flame ionization detector) (FID), was used, an oven set was 60° C., and the injector and the detector were set at 180° C. As a mobile phase, helium was injected into the column at a rate of 2 ml/min. For quantitative determination of the amount of ethylene gas in the vial, 150 μl of gas was sampled from the vial with a gas-tight syringe using a headspace technique and injected into the injector.
The area under the kinetic curve (AUC) was obtained by integrating the graph determined from the results of the above experiment, and the TOSC value was calculated according to the following equation 1 and shown in Table 1 below:
TOSC=100−(∫SA/∫CA×100) [Equation 1]

Setting [3] is: read-out: LDH release inhibitory rate (ED50).
The mark [4] stands for this setting: Rattus norvegicus, Hepatocyte, 50 min, means ± SE of three independent experiments in triplicate, read-out: ED50 (the source's name).
[5] abbreviates: Rattus norvegicus, Hepatocyte, 50 min, read-out: LDH release inhibitory rate (ED50).

Read-outs that look alike come from different tables or passages of the source.

Regarding rubranoside C, in test [1] (setting [3]), the EC50 is 12.8 µM. The “scavenging capacity for peroxyl radicals and peroxynitrite” value (shortened to “scavenging capacity”) in test [2] is on record as “second highest”.
As for alnuside A, the EC50 in test [1] (setting [3]) was 26.5 µM. In addition, the “scavenging capacity” value in test [2] was “second highest”.
As to `O=C(CCc1ccc(O)c(O)c1)C[C@@H](O)CCc1ccc(O)c(O)c1` [hirsutanonol], the EC50 in test [1] (setting [4]) was 6.28 ± 0.81 µM; in test [1] (setting [5]), 6.28 µM. In test [2], the “scavenging capacity” value is “highest”.
As for “platyphyllonol-5-xylose [Platyphyllone-5-xylose]”, the “effect on the inhibition of LDH release” value in test [1] (in words) is “no effect”. In addition, the “activities against reactive oxygen species” value in test [2] (in words) is “weak”.
With `COc1cc(C2Oc3cc([C@H]4Oc5cc(O)cc(O)c5C(=O)[C@@H]4O)ccc3OC2CO)ccc1O` (stereo partly shown) [Silibinin, reference compound], the EC50 was 131 ± 6.7 µM in test [1] (setting [4]) and 131 µM in test [1] (setting [5]).
`O=C(/C=C/CCc1ccc(O)c(O)c1)CCc1ccc(O)c(O)c1` [hirsutenone]: the figures for the EC50 in test [1] (setting [4]) and in test [1] (setting [5]) were 3.08 ± 0.14 µM and 3.08 µM, respectively. Also, in test [2], the “scavenging capacity” value was “highest”.
In the case of alnuside B, in test [1] (setting [3]), the EC50 stood at 25.9 µM. Also, in test [2], the “scavenging capacity” value is on record as “second highest”.
